The values below come from article PMC5346982, “Antimalarial Properties of Simplified Kalihinol Analogues” (ACS Medicinal Chemistry Letters, 2017).

The test system of one data set is P. falciparum 3D7. The data set can be described thus: SYBR Green based parasite proliferation assay, drug-sensitive 3D7 strain. The data set is classed as cell-based, Plasmodium falciparum.
Data set [1] concerns P. falciparum Dd2. The data set can be described thus: SYBR Green based parasite proliferation assay, chloroquine-resistant Dd2 strain. The data set is classed as cell-based, Plasmodium falciparum.
The subject of the next data set is P. falciparum HB3. Particulars: Wood group, cited from earlier work.
Data set [2] has as its system P. falciparum Dd2. The following applies: Wood group, cited from earlier work.
Data set [3] relates to FCR-3 Plasmodium falciparum. Set-up: method as in doi:10.1016/S0040-4020(98)00818-7. Particulars: chloroquine-resistant FCR-3 strain; cited from earlier work.
The subject of the next data set is P. falciparum W2. Particulars: drug-resistant W2 strain; Figure 1; cited from earlier work.
Data set [4] can be described thus: Microsomal stability assay, human liver microsomes. The format is in vitro ADME. Particulars: pH 7.4. As to the method:
Reference compound Ketanserin
Sample size Duplicates (n=2)
Bioanalytical method LC-MS/MS
Microsomal Liver Weight per Hepatic
Species Protein Kilogram of Body Scaling Factora Blood Flow
per Gram of Liver Weight (mL/min/kg)
Test Article Species Percent Remaining (%) T1/2 Clint
1. Historic data of ketanserin:
Detection method UPLC-MS/MS-29(API6500+)
Internal standard (s) Osalmid, imipramine
MS conditions Positive ion, ESI
Mobile phase A: 0.025%FA/1mM NH4OAc/H2O
2. Reference compouds(Ketanserin) and test compounds spiking solution: […]
(Microsomes from liver hold many membrane-bound enzymes, among them those of drug oxidation.)

A further data set in a line: in vitro. The following applies: mouse, microsomes, pH 7.4.
For data set [5] the following is noted: microsomes; cited from earlier work.
The conditions of data set [6]: microsomes; cited from earlier work. The source holds these as a separate data set.
The mark [7] stands for this setting: drug-sensitive 3D7 strain, 72 h incubation, n = 3, read-out: IC50.
Where [8] appears, read: drug-resistant Dd2 strain, 72 h incubation, n = 3, read-out: IC50.

Where “and” joins values, the source holds several entries; their conditions need not be identical. Equal values may be shown once. Read-outs that look alike come from different tables or passages of the source.

In the case of 10-isocyano-4-cadinene [(±)-15], the half-maximal inhibitory concentration (IC50) in the data set on P. falciparum 3D7 (3D7 strain) was 0.1631 µg/mL; with P. falciparum 3D7 (setting [7]), 0.705 µM; with P. falciparum Dd2 [1] (Dd2 strain), 0.057 µg/mL; in the data set with P. falciparum Dd2 [1] (setting [8]), 0.247 µM; in the data set on P. falciparum HB3 (HB3 (chloroquine-sensitive)), 2200 nM; with P. falciparum Dd2 [2] (Dd2 (chloroquine-resistant)) it was 2200 nM.
Consider 6-hydroxy-kalihinene [compound 3], for which, in data set [3], the IC50 is 80 nM.
On to kalihinol B [compound 2], for which the “IC50” value in the data set with P. falciparum 3D7 (3D7 strain) was found to be 0.0033 µg/mL; with P. falciparum 3D7 (setting [7]), 0.0084 µM; in the data set with P. falciparum Dd2 [1] (Dd2 strain), 0.0018 µg/mL; in the data set with P. falciparum Dd2 [1] (setting [8]), 0.0046 µM.
As for 7,20-diisocyanoadociane [compound 4], the IC50 with P. falciparum W2 is 13 nM.
As for `[C-]#[N+]C1C2C(C(C)C)CCC(C)([N+]#[C-])C2CCC1(C)O` (racemic) [(±)-22], the IC50 in the data set on P. falciparum HB3 (HB3) and in the data set with P. falciparum Dd2 [2] (Dd2) was 80 nM each time.
In the case of `O=C(c1ccc(F)cc1)C1CCN(CCn2c(=O)[nH]c3ccccc3c2=O)CC1` [ketanserin], in data set [4] (human, microsomes), the CLint scaled at 1 µM worked out at 40 mL/min/kg; the share remaining at 5 min, 1 µM worked out at 88.4%; the fraction remaining at 0.25 h, 1 µM is 77%; the share remaining at 0.5 h, 1 µM is 62.5%. This compound returned a fraction remaining at 0.75 h, 1 µM in data set [4] (human, microsomes) of 47.3%. In data set [4] (human liver microsomes 0.5 mg/mL, 1 µM, 37°C), this compound came in with a half-life at 1 µM of 43.4 min. Further, in the data set “in vitro”, the CLint scaled at 1 µM amounted to 267 mL/min/kg; the half-life at 1 µM is 20.4 min; the share remaining at 0 h, 1 µM was 100%; the amount remaining at 5 min, 1 µM came to 79.9%. Also, in “in vitro”, the amount remaining at 0.25 h, 1 µM is 55.5%; the share remaining at 0.5 h, 1 µM worked out at 32.9%; the fraction remaining at 0.75 h, 1 µM came to 21.7%. For the same compound, the “T1/2 (Human), historic data” value in data set [5] is recorded as 39.69 ± 6.36 min. For the same compound, the “T1/2 (Mouse), historic data” value in data set [6] is listed as 18.27 ± 3.89 min.
Take `CCN(CC)CCCC(C)Nc1ccnc2cc(Cl)ccc12` (stereo not shown) [Chloroquine]: the concentration for half-maximal inhibition (IC50) was 0.0063 µM in the data set with P. falciparum 3D7 (Plasmodium falciparum, 3D7, read-out: Chloroquine IC50 [µM], 3D7 strain, antimalarial standard run alongside each compound); 0.0052 µM and 0.0066 µM and 0.0059 µM and 0.0091 µM and 0.0089 µM and 0.0058 µM and 0.0061 µM in the data set on P. falciparum 3D7 (read-out: Chloroquine IC50, 3D7 strain, antimalarial standard run alongside each compound); 0.0275 µM in the data set with P. falciparum Dd2 [1] (Plasmodium falciparum, DD2, read-out: Chloroquine IC50 [µM], Dd2 strain, antimalarial standard run alongside each compound); 0.0322 µM and 0.0337 µM and 0.0497 µM and 0.0521 µM in the data set with P. falciparum Dd2 [1] (read-out: Chloroquine IC50, Dd2 strain, antimalarial standard run alongside each compound).
Regarding kalihinol A [compound 1], the concentration for half-maximal inhibition (IC50) in data set [3] was 1.2 nM.

By IC50 is commonly meant the concentration at which inhibition is half-maximal. By CLint scaled is commonly meant the capacity of the preparation to metabolise the compound, expressed as a volume cleared per time. The term share remaining denotes the share of the starting amount still present when the sample was taken. Read a high share remaining as greater stability. The term half-life denotes the time needed for the level to fall by half in the phase considered. A high value points to slow loss.
